The subject of experiment [1] is papillary muscles of a right ventricle. In words: Pharmacological Test 1: contraction of isolated right ventricular papillary muscles upon electric stimulation (inotropic effect). Details: species or system male Hartley guinea pig. The settings on record: 3×10^-5 M; percentage of increment of contractile force, isoprotelenol (1×10^-8 M) = 100%; 1 Hz stimulation, 30° C. On the procedure: (§1) Nos. of the compounds in the pharmacological tests 1 and 2 correspond to those in Examples referred to hereinafter.
(§2) A heart was removed from a male Hartley guinea pig (having a body weight of about 400 g or so) and a right atrium and papillary muscles of a right ventricle were separated from the removed heart. These preparations were suspended in 15 ml of Magnus' bath under load of 0.5 g (papillary muscles) or 1.0 g (right atria). Contraction of papillary muscles upon electric stimulation (1 Hz, 5 msec, 1.5×threshold voltage) and spontaneous contraction of the right atria were recorded through a transducer (manufactured by Orientec, T7-8-240) by a polygraph system (manufactured by NIHONKOHDEN, RMP-6008 and WT-685G).
(§3) Krebs-Henseleit solution was used as nutritive liquid bubbled with mixed gases of 95% O2 with 5% CO2 at 30° C. The value of inotropic effect is a percentage of increment of contractile force by samples when that by isoprotelenol (1×10^-8 M) is considered to be 100%. The value of chronotropic effect is a percentage of atrial rate after the injection of samples when the atrial rate before the injection is considered to be 100%.

Another experiment concerns right atria. In words: Pharmacological Test 1: spontaneous contraction of isolated right atria (chronotropic effect). Also on record: species or system male Hartley guinea pig. The settings on record: Cavia porcellus; 3×10^-5 M; percentage of atrial rate after injection, rate before injection = 100%; 30° C. On the procedure:
as §1, §2, §3

On to `O=C1CSC(C2=CCN(CC(O)c3cccc(C(F)(F)F)c3)CC2)=NN1` (stereo not drawn) [Compound 34, 2-[1-[2-Hydroxy-2-[3-(trifluoromethyl)phenyl]ethyl]-1,2,5,6-tetrahydropyrid-4-yl]-4H,6H-1,3,4-thiadiazin-5-one], for which, in experiment [1], the “Inotropic Effect” value was 49.9%. The activity at 30 µM in the experiment on right atria was 98.1%.

In the case of `O=C1CSC(C2=CCN(CC(O)c3ccc([N+](=O)[O-])cc3)CC2)=NN1` (stereo not drawn) [Compound 31, 2-[1-[2-Hydroxy-2-(4-nitrophenyl)ethyl]-1,2,5,6-tetrahydropyrid-4-yl]-4H,6H-1,3,4-thiadiazin-5-one], the “Inotropic Effect” value in experiment [1] came out at 74.7%. Also, in the experiment with right atria, the activity at 30 µM was 90.4%.

For `COc1ccc(C(O)CN2CC=C(C3=NNC(=O)CS3)CC2)cc1` (stereo not drawn) [Compound 1, 2-[1-[2-Hydroxy-2-(4-methoxyphenyl)ethyl]-1,2,5,6-tetrahydropyrid-4-yl]-4H,6H-1,3,4-thiadiazin-5-one], the “Inotropic Effect” value in experiment [1] is listed as 55.7%. Moreover, in the experiment on right atria, the activity at 30 µM was 87.6%.

In the case of `Cc1ccc(C(O)CN2CC=C(C3=NNC(=O)C(C)S3)CC2)cc1` (stereo not drawn) [Compound 22, 2-[1-[2-Hydroxy-2-(4-methylphenyl)ethyl]-1,2,5,6-tetrahydropyrid-4-yl]-6-methyl-4H,6H-1,3,4-thiadiazin-5-one], the “Inotropic Effect” value in experiment [1] is 30.4%. Besides, the activity at 30 µM with right atria came out at 76.7%.

With `O=C1NN=C(c2ccncc2)CS1` [b, 5-(4-Pyridyl)-3H,6H-1,3,4-thiadiazin-2-one, reference compound], in experiment [1], the “Inotropic Effect” value was 36.2%. For the same molecule, in the experiment with right atria, the activity at 30 µM is 117%.

Regarding `O=C1NN=C(C2=CCN(CC(O)c3ccc(F)cc3)CC2)CS1` (stereo not drawn) [Compound 46, 5-[1-[2-(4-Fluorophenyl)-2-hydroxyethyl]-1,2,5,6-tetrahydropyrid-4-yl]-3H,6H-1,3,4-thiadiazin-2-one], the “Inotropic Effect” value in experiment [1] amounted to 61.9%. Also, the activity at 30 µM in the experiment with right atria turned out to be 81.6%.

As for `CC1SC(C2=CCN(CC(O)c3ccc(Cl)cc3)CC2)=NNC1=O` (stereo not drawn) [Compound 14, 2-[1-[2-(4-Chlorophenyl)-2-hydroxyethyl]-1,2,5,6-tetrahydropyrid-4-yl]-6-methyl-4H,6H-1,3,4-thiadiazin-5-one], the “Inotropic Effect” value in experiment [1] was 26.3%. In the experiment on right atria, the activity at 30 µM was determined as 73.5%.

In the case of `Cc1ccc(C(O)CN2CC=C(C3=NNC(=O)SC3)CC2)cc1` (stereo not drawn) [Compound 43, 5-[1-[2-Hydroxy-2-(4-methylphenyl)ethyl]-1,2,5,6-tetrahydropyrid-4-yl]-3H,6H-1,3,4-thiadiazin-2-one], the “Inotropic Effect” value in experiment [1] stood at 57.2%. For the same molecule, the activity at 30 µM with right atria is 85.2%.

For `Cc1ccc(C(O)CN2CC=C(C3=NNC(=O)CS3)CC2)c(C)c1` (stereo not drawn) [Compound 25, 2-[1-[2-Hydroxy-2-(2,4-dimethylphenyl)ethyl]-1,2,5,6-tetrahydropyrid-4-yl]-4H,6H-1,3,4-thiadiazin-5-one], the “Inotropic Effect” value in experiment [1] was 58.5%. In addition, the activity at 30 µM in the experiment with right atria came out at 65.2%.

As to `COc1ccc(C(CN2CC=C(C3=NNC(=O)CS3)CC2)OC(C)C)cc1` (stereo not drawn) [Compound 71, 2-[1-[2-Isopropoxy-2-(4-methoxyphenyl)ethyl]-1,2,5,6-tetrahydropyrid-4-yl]-4H,6H-1,3,4-thiadiazin-5-one], the “Inotropic Effect” value in experiment [1] turned out to be 25.3%. The activity at 30 µM in the experiment on right atria worked out at 98.7%.

For `COc1ccc(C(O)CN2CC=C(C3=NNC(=O)SC3)CC2)cc1` (stereo not drawn) [Compound 39, 5-[1-[2-Hydroxy-2-(4-methoxyphenyl)ethyl]-1,2,5,6tetra-hydropyrid-4-yl]-3H,6H-1,3,4-thiadiazin-2-one], the “Inotropic Effect” value in experiment [1] was found to be 28.3%. For the same molecule, the activity at 30 µM in the experiment with right atria was found to be 75.7%.

`COc1ccc(C(O)CN2CC=C(C3=NNC(=O)CC3)CC2)cc1` (stereo not drawn) [Compound 49, 4,5-Dihydro-6-[1-[2-hydroxy-2-(4-methoxyphenyl)ethyl]-1,2,5,6-tetrahydropyrid-4-yl]pyridazin-3(2H)-one]: the “Inotropic Effect” value in experiment [1] came out at 27.7%. Also, the activity at 30 µM with right atria stood at 87.6%.

Values taken from US5574033A, “Heterocyclic compound and cardiotonic agent containing the same as effective component” (Zenyaku Kogyo Kabushiki Kaisha, priority 1991, dated 1996).
